Values quoted from earlier work, collected in patent publication EP0136475A2, “Novel growth hormone-releasing peptides and method of treating mammals therewith” (The Administrators of The Tulane University Educational Fund, priority 1983, dated 1985).
No end group written: not given here.

Tested on: rat anterior pituitary

## hp GRF(1-29)-NH2: a synthetic amidated fragment of the natural hp GRF (YADAIFTNSYRKVLGQLSARKLLQDIMSR-NH2; UniProt P01286 32-60, looked up, fragment)
Reported by Spiess et al.
  intrinsic biological activity: full intrinsic biological activity

## hpGRF: growth hormone-releasing factors (GRF) of human pancreatic islet tumor origin (YADAIFTNSYRKVLGQLSARKLLQDIMSRQQGESNQERGARARL-NH2; ends and bridges not checked; UniProt P01286 32-75, looked up)
Rat anterior pituitary in vitro and in vivo
  growth hormone(GH)-releasing activity: possess growth hormone(GH)-releasing activity
